{"source": "patent US10632132B2", "about": "“Methods for treating heart transplant rejection” (priority 2018, dated 2020)", "key": {"[1]": {"system": "NF-κB and NLRP3 inflammasome-dependent IL-1β release", "assay": "LPS-induced IL-1β release in mice, measured by ELISA in plasma and peritoneal wash", "format": "in vivo", "conditions": "C57BL/6 mice, 100 mg/kg IP for 1 hour, then LPS 10 mg/kg IP for 2 hours", "description": "(§1) While not wishing to be bound by theory, NLRP3 inflammasome activation is a mechanism that mediates the rejection of allotransplantation and in one embodiment of the described invention, it is a possible therapeutic target to treat allotransplantation of a heart. […] C57BL/6 mice were treated with SANA or salicylic acid (SA) (100 mg/kg, IP) or the vehicle (DMSO) for 1 hour. Then were injected with LPS (10 mg/kg, IP) or PBS for 2 hours, with subsequent peritoneal washes and blood extractions. Peritoneal wash and plasma were stored to measure IL-1β by ELISA. […] Rats were administrated with SANA or SA (100 mg/kg), SANA (50 mg/kg) or vehicle (Phosphate buffer) by oral gavage every day since day −1 until day 15 post-transplantation. Heart heterotopic transplantation was done by implantation of the donor heart (Lewis 1W rat) into the receptor abdomen (Lewis 1A rat). Rejection was diagnosed when the heart lost functionality (beats has stopped)."}, "[2]": {"system": "fully mismatched heterotopic heart allograft", "assay": "Fully mismatched heterotopic heart allograft survival in rats", "format": "in vivo, rat (Lewis 1W donor, Lewis 1A receptor)", "conditions": "rat; SANA 100 mg/kg or 50 mg/kg by oral gavage daily from day −1 to day 15 post-transplantation; compared with control (vehicle) and precursor drug SA 100 mg/kg; FIG. 3", "description": "as §1"}}, "data": [{"smiles": "O=C(O)c1cc(/C=C/[N+](=O)[O-])ccc1O", "note": "[SANA, 2-hydroxy-5-(2-nitroethenyl)benzoic acid]", "values": [{"measurement": "effect on NF-κB and NLRP3 inflammasome-dependent IL-1β release in the peritoneum", "setting": "[1]; peritoneal wash, FIG. 2", "value": "inhibitory effect"}, {"measurement": "effect on NF-κB and NLRP3 inflammasome-dependent IL-1β release in the plasma", "setting": "[1]; plasma, FIG. 1", "value": "inhibitory effect"}, {"measurement": "heart graft survival (rejection = heart beats stopped)", "setting": "[2]", "value": "prolonged the heart grafted survival"}]}]}
